Data reported in patent US7220784B2, “Substituted stilbenes and their reactions” (priority 2000, dated 2007).

Experiments:
A2780 = test: Cytotoxicity/growth inhibition assay (MTT), A2780; assay type: cell-based; conditions: read-out: A2780 IC50
Outline: (§1)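 MTT cytotoxicity/growth-inhibition assay in human cell lines including A2780, A2780/ADR, H460 and HUVEC.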

[1] = test system: P388 murine leukaemia cell line; test: Cytotoxicity/growth inhibition assay (MTT), P388; assay type: cell-based; conditions: MTT
Outline: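 Growth inhibition of P388 murine and K562 human leukaemia cells measured by MTT assay.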

HUVEC = test: Growth inhibition studies using HUVEC; assay type: cell-based, human
Outline: as §1

[2] = Pharmacokinetic profile in mice; assay type: in vivo; conditions: 200 mg/kg

COc1ccc(C=Cc2cc(OC)c(OC)c(OC)c2)cc1F [Compound 97-64H]
IC50 (A2780): 3.66 nM
IC50 [1]: 0.489 nM
concentration necessary to inhibit the growth of HUVEC cells in vitro (HUVEC): 0.001 mM
IC50 (HUVEC; Homo sapiens, HUVEC): 2.4 nM
Cmax ([2]; mouse, in vivo, po): 1.49 µg/mL
half-life ([2]; mouse, in vivo, po, absorption half life): 15 min
half-life ([2]; mouse, in vivo, po, elimination half life): 32 min
concentration achieved in vivo ([2]; oral): 1490 µg/mL
concentration achieved in vivo (molar) ([2]; oral): 4600 µM
